Results on 13 molecules are retold here after patent US4740504A, “Antihyperlipidemic amine boranes” (United States Borax & Chemical Corp., priority 1987, dated 1988).

The test system of experiment [1] is male CF1 mice. As to the kind of experiment: Hypolipidemic activity in CF1 mice, intraperitoneal dosing (serum cholesterol and triglyceride). It counts as in vivo. As to conditions: Mus musculus, ip, male CF1 mice; for response vs control in vivo at 20 mg/kg / response vs control in vivo at 5 mg/kg: Table I; for response vs control in vivo at 20 mg/kg: 20 mg./kg./day i.p.; for response vs control in vivo at 8 mg/kg: Table II, 8 mg./kg./day i.p.; for response vs control in vivo at 5 mg/kg: 5 mg./kg./day i.p. Here is the method: For determining hypolipidemic activity, the compounds were suspended in an aqueous 1% carboxymethylcellulose solution and tested at 5 or 20 mg./kg./day administered intraperitoneally to male CF1 mice (~25 g.). On days 9 and 16 blood was collected by tail vein bleeding and the serum separated by centrifugation for three minutes. Serum cholesterol levels were determined by a modified Liebermann-Burchard reaction. Serum triglyceride levels were also determined at 16 days using a Fisher-Hycel Triglyceride Test Kit.
The test was repeated at a dosage of 8 mg./kg./day.
N-n-Octadecyl-N,N-dimethylamine borane was suspended in an aqueous 1% carboxymethylcellulose solution, homogenized, and administered to CF1 male mice (~25 g.) intraperitoneally for 16 days or Sprague Dawley male rats (~350 g.) orally by an intubation needle for 14 days. On days 9 and 14 or 16, blood was obtained by tail vein bleeding and the serum separated by centrifugation for 3 minutes. The serum cholesterol levels were determined by a modification of the Liebermann-Burchard reaction. Serum was also collected on day 14 or 16 and the triglyceride content was determined by a Fisher-Hycel Triglyceride Test Kit.

For experiment [2] the following is noted: dose of 5-20 mg/kg/day; Hall et al., J. Pharm. Sci. 70, 339-341 (1981); cited from earlier work.
Experiment [3] relates to phosphatidate phosphohydrolase. The following applies: in vivo; Hall et al. 1984; cited from earlier work.
Experiment [4] deals with T1, acetyl CoA synthetase (Mus musculus, UniProt Q9QXG4).
T1 construct: from tissue
T1 sequence (Q9QXG4 whole entry): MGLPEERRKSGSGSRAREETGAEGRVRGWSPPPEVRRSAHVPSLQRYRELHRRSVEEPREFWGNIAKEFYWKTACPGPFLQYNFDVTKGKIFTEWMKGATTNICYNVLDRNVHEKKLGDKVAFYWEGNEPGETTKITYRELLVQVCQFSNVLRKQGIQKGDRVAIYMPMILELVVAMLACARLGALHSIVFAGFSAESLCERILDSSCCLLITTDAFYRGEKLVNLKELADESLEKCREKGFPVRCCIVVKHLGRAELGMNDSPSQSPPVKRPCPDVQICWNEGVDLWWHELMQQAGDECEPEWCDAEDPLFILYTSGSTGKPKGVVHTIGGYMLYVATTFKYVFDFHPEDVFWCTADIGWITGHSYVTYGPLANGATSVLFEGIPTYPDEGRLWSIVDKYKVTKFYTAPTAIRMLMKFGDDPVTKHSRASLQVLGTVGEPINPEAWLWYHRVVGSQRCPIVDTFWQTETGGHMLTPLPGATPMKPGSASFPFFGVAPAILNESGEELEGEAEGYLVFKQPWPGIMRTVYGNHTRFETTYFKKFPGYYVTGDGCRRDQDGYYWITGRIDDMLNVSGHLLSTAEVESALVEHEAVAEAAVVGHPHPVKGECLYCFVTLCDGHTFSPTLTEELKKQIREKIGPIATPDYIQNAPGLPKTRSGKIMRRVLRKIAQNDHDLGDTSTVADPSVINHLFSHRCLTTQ
As to conditions: in vivo; Hall et al. 1984; cited from earlier work.

In experiment [5] the test system is mice. As to conditions: cited from earlier work.
For experiment [6], the target named is T2, ATP dependent citrate lyase (Mus musculus, UniProt Q91V92).
T2 construct: from tissue
T2 sequence (Q91V92 1-1091): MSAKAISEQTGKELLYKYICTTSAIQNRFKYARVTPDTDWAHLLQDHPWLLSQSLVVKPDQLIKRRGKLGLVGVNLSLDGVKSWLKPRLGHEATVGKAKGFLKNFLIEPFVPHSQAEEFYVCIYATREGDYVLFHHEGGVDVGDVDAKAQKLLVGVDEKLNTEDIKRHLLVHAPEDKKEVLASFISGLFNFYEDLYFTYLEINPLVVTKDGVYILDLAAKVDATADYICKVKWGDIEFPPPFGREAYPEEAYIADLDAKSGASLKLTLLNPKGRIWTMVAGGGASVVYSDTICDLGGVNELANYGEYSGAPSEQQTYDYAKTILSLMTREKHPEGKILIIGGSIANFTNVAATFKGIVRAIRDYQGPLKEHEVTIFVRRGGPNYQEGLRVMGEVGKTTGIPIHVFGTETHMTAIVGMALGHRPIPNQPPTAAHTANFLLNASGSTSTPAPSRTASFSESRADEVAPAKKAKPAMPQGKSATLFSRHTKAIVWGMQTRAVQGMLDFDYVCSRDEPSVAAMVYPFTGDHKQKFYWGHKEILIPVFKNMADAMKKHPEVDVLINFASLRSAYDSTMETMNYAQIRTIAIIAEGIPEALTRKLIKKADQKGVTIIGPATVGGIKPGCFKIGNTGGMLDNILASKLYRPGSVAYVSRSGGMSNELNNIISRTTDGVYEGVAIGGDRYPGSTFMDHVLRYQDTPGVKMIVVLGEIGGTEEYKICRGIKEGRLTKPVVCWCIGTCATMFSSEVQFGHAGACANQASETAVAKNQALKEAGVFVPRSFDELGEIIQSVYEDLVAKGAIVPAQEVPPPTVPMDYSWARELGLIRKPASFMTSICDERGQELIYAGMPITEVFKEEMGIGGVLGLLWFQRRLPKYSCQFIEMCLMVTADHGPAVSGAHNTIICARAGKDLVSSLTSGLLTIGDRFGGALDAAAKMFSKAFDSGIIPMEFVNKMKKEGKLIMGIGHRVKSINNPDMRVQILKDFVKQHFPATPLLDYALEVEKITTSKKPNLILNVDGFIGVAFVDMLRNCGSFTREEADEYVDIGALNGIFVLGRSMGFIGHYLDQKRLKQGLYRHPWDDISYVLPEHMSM
As to conditions: in vivo; Hall et al. 1984; cited from earlier work.

[7] abbreviates: 216 h, day 9, read-out: Serum Cholesterol Day 9.
The mark [8] stands for this setting: 384 h, day 16, read-out: Serum Cholesterol Day 16.
Setting [9] is: 384 h, day 16, read-out: Serum Triglyceride Day 16.

Read-outs that look alike come from different tables or passages of the source.

Consider `[BH3-][N+](C)(C)CCCCCCCC` [II, N-octyl-N,N-dimethylamine borane], for which the response vs control in vivo at 20 mg/kg in experiment [1] (setting [7]) came to 66%; in experiment [1] (setting [8]) it was 69%; in experiment [1] (setting [9]) it was 75%. Moreover, the response vs control in vivo at 8 mg/kg in experiment [1] (setting [7]) was 81%; in experiment [1] (setting [8]) it was 73%; in experiment [1] (setting [9]), 74%.
`[BH3-][N+](C)(C)CCCCCCCCCCC` [IV, N--undecyl-N,N--dimethylamine borane]: the response vs control in vivo at 5 mg/kg amounted to 68% in experiment [1] (setting [7]), 63% in experiment [1] (setting [8]) and 82% in experiment [1] (setting [9]). Besides, the response vs control in vivo at 8 mg/kg worked out at 82% in experiment [1] (setting [7]), 68% in experiment [1] (setting [8]) and 75% in experiment [1] (setting [9]).
For `[BH3-][N+](C)(C)CCCCCCCCCCCC` [IX, N--dodecyl-N,N--dimethylamine borane], the response vs control in vivo at 20 mg/kg was 103% in experiment [1] (setting [7]), 97% in experiment [1] (setting [8]) and 90% in experiment [1] (setting [9]). Also, the figures for the response vs control in vivo at 8 mg/kg in experiment [1] (setting [7]), in experiment [1] (setting [8]) and in experiment [1] (setting [9]) were 75%, 74% and 94%, respectively.
For `[BH3-][N+](C)(C)CCCCCCCCCCCCC` [V, N--tridecyl-N,N--dimethylamine borane], the response vs control in vivo at 20 mg/kg turned out to be 88% in experiment [1] (setting [7]), 65% in experiment [1] (setting [8]) and 57% in experiment [1] (setting [9]). For the same molecule, the response vs control in vivo at 8 mg/kg in experiment [1] (setting [7]) was 86%; in experiment [1] (setting [8]) it was 84%; in experiment [1] (setting [9]) it was 76%.
For the molecule `[BH3-][N+](C)(C)CCCCCCCCCCCCCCC` [VI, N--pentadecyl-N,N--dimethylamine borane], the response vs control in vivo at 20 mg/kg in experiment [1] (setting [7]) came to 86%; in experiment [1] (setting [8]) it was 64%; in experiment [1] (setting [9]), 70%. The response vs control in vivo at 8 mg/kg in experiment [1] (setting [7]) worked out at 81%; in experiment [1] (setting [8]), 66%; in experiment [1] (setting [9]), 77%.
Turning to `[BH3-][N+](C)(C)CCCCCCCCCCCCCC` [VII, N--tetradecyl-N,N--dimethylamine borane], the response vs control in vivo at 20 mg/kg in experiment [1] (setting [7]) was found to be 79%; in experiment [1] (setting [8]), 60%; in experiment [1] (setting [9]), 102%. In addition, the response vs control in vivo at 8 mg/kg in experiment [1] (setting [7]) was 80%; in experiment [1] (setting [8]) it was 67%; in experiment [1] (setting [9]) it was 80%.
As for `[BH3-][N+](C)(C)CCCCCCCCCCCCCCCC` [VIII, N--hexadecyl-N,N--dimethylamine borane], the response vs control in vivo at 20 mg/kg in experiment [1] (setting [7]) worked out at 74%; in experiment [1] (setting [8]) it was 62%; in experiment [1] (setting [9]) it was 72%. Besides, the response vs control in vivo at 8 mg/kg in experiment [1] (setting [7]) stood at 79%; in experiment [1] (setting [8]) it was 59%; in experiment [1] (setting [9]) it was 41%.
Turning to `[BH3-][N+](C)(C)CCCCCC` [X, N-- -n-hexyl-N,N--dimethylamine borane], the response vs control in vivo at 20 mg/kg in experiment [1] (setting [7]) was 66%; in experiment [1] (setting [8]) it was 48%; in experiment [1] (setting [9]) it was 71%. Further, the response vs control in vivo at 8 mg/kg in experiment [1] (setting [7]) amounted to 73%; in experiment [1] (setting [8]), 69%; in experiment [1] (setting [9]), 80%.
On to `[BH3-][N+](C)(C)CCCC` [XI, N-- -n-butyl-N,N--dimethylamine borane], for which the values for the response vs control in vivo at 20 mg/kg in experiment [1] (setting [7]), in experiment [1] (setting [8]) and in experiment [1] (setting [9]) were 72%, 62% and 68%, respectively. Moreover, the response vs control in vivo at 8 mg/kg turned out to be 88% in experiment [1] (setting [7]), 64% in experiment [1] (setting [8]) and 72% in experiment [1] (setting [9]).
As for `[BH3-][N+](C)(C)CCCCCCCCCC` [XII, N--decyl-N,N--dimethylamine borane], the response vs control in vivo at 20 mg/kg in experiment [1] (setting [7]) was determined as 51%; in experiment [1] (setting [8]), 46%; in experiment [1] (setting [9]) it was 76%. The results for the response vs control in vivo at 8 mg/kg in experiment [1] (setting [7]), in experiment [1] (setting [8]) and in experiment [1] (setting [9]) were 77%, 77% and 79%, respectively.
`[BH3-][N+](C)(C)Cc1ccccc1` [XIII, N--benzyl-N,N--dimethylamine borane]: the figures for the response vs control in vivo at 20 mg/kg in experiment [1] (setting [7]), in experiment [1] (setting [8]) and in experiment [1] (setting [9]) were 95%, 71% and 60%, respectively. The response vs control in vivo at 8 mg/kg is 73% in experiment [1] (setting [7]), 65% in experiment [1] (setting [8]) and 53% in experiment [1] (setting [9]).
In the case of `C[N+](C)(C)[BH2-]C(=O)O` [trimethylamine carboxyborane], in experiment [2], the “hypolipidemic activity (printed: hyperlipidemic)” value was “potent hyperlipidemic activity”.
As to “tetrakis-μ-(trimethylamine-borane carboxyato)-bis(trimethylamine-carboxyborane)-dicopper (II)”, in experiment [3], the “effect on phosphatidate phosphohydrolase” value is reported as “lower”. The “effect on acetyl CoA synthetase” value in experiment [4] was “lower”. Further, the hypolipidemic activity entry in experiment [5] (2.5 mg/kg in mice, Hall et al., J. Pharm. Sci. 73, 973-977 (1984)) was “potent hypolipidemic agent”. Besides, the “cholesterol excretion from the body” value in experiment [5] (Hall et al. 1984) is recorded as “accelerate cholesterol excretion”. Moreover, the “effect on ATP dependent citrate lyase” value in experiment [6] was “lower”.
